Assay results published in paper PMC7870753, “Population pharmacokinetics of ATR inhibitor berzosertib in phase I studies for different cancer types” (Cancer Chemotherapy and Pharmacology, 2020).
Where two headings read alike, the source gives them in different places.

How the values were obtained:
[1] = Population PK analysis (non-linear mixed-effect, two-compartment linear model) of berzosertib plasma concentrations, Studies 001 and 002; format: in vivo; settings: for cov (Q, V2) / cov (V1, Q) / cov (V1, V2): covariance; for clearance: human, plasma, read-out: Clearance CL (converted)
Method: Longitudinal berzosertib plasma concentration and dosing data from the two phase I clinical trials, described above, were available for the analysis. The studies were performed in accordance with the Declaration of Helsinki; all participants provided written informed consent before blood samples were collected.
Study 001 (Online Resource Figure S1) was a phase I, open-label, first-in-human multiple ascending dose study to investigate the safety, tolerability, and PK of berzosertib alone and in combination with cytotoxic chemotherapy in patients with advanced solid tumors. The RP2D or maximum tolerated dose was determined in dose escalation parts A and B with further evaluation of safety and efficacy in expansion cohorts (parts C1–3). PK data were available from 170 patients who received twice-weekly 1-h intravenous infusions of berzosertib (18–210 mg/m^2) during a 7–14-day monotherapy lead-in. This preceded combination with chemotherapies, administered on day 1, and berzosertib administered on days 2 and 9 every 21 days following (1) gemcitabine, or cisplatin and gemcitabine (54 patients, Part A); (2) cisplatin (29 patients, Part B); (3) gemcitabine in patients with non-small cell lung cancer (NSCLC; 36 patients, Part C1); (4) cisplatin in patients with triple-negative breast cancer (TNBC) basaloid subtype and BRCA wild type (37 patients, Part C2); cisplatin or carboplatin in patients with platinum-resistant small cell lung cancer (SCLC; 14 patients, Part C3). Berzosertib was also evaluated in combination with irinotecan in a subsequent study cohort (Part B2). In Study 001, Parts A and B, rich PK sampling (pre-dose, 0.5, 1 h (end of infusion), 1.5, 2, 4, 8, 24, 48, and 72 h after the start of infusion) was performed for most patients following berzosertib monotherapy in the lead-in. Similar rich PK sampling was conducted on cycle 1 days 2 through 5 after the first dose of berzosertib in combination with other agents in study parts A and B or during dose escalation. Additional sparse samples (pre-dose and 2 h after the end of infusion) were taken during cycle 1, day 9 and cycle 2, day 2. In the expansion cohorts Parts C1, C2, and C3, limited PK sampling was performed on cycle 1 day 2: pre-dose, 0.5, 1 h (end of infusion), 1.5, 2, 4, and (optionally) 8 h after the start of infusion. Similar sampling was performed on cycle 1, day 9 on a portion of the participants before being removed by amendment.
Study 002 (Online Resource Figure S1) was a phase I, open-label, multiple ascending dose study to investigate the safety, tolerability, and PK/PD profile of berzosertib as a single agent and in combination with carboplatin or carboplatin and paclitaxel in patients with advanced solid tumors. PK data were available from 70 patients who received 1-h intravenous infusions of berzosertib (1) as a single agent once weekly (11 patients, Part A1); (2) as a single agent twice weekly (6 patients, Part A2); (3) on days 2 and 9 every 21 days following carboplatin on day 1 (23 patients, Part B1); (4) on days 2 and 9 every 21 days following carboplatin and paclitaxel on day 1 (15 patients, Part B2); (5) on days 2 and 9 following carboplatin on day 1 every 21 days in patients with advanced solid tumors and lymphoma with defects in the DDR (15 patients, Part C). In Study 002, in all study parts, rich PK sampling (pre-dose, 0.5, 1 h (end of infusion), 1.5, 2, 4, 8, 24, and 48 h after start of infusion) was performed after the first dose of berzosertib. In Part A1, additional sparse samples (pre-dose, 0.5–2 h after the end of infusion) were collected on cycle 1, day 8 and day 15. […]

p-Chk1 = test system: p-Chk1; parameters: method as in earlier work; settings: cited from earlier work
[2] = cited from earlier work
CYP3A4 = settings: based on in vitro data; cited from earlier work
[3] = cited from earlier work; remark: listed apart in the source
[4] = test system: patient-derived non-small cell lung tumor xenografts; parameters: method as in PMID 25010037; settings: multiple patient-derived non-small cell lung tumor xenografts; cited from earlier work
[5] = test system: acute myeloid leukemia cells; parameters: method as in PMID 29789314; settings: in combination with gemcitabine; cited from earlier work
acute myeloid leukemia = test system: acute myeloid leukemia; parameters: method as in PMID 29789314; settings: orthotopic mouse model, in combination with gemcitabine; cited from earlier work
pancreatic cancer cells = test system: pancreatic cancer cells; parameters: method as in PMID 23222511, PMID 22825331; settings: pancreatic cancer cells vs normal cells; cited from earlier work
[6] = test system: pancreatic cancer xenografts; parameters: method as in PMID 23222511, PMID 22825331; settings: after radiation and gemcitabine-based chemoradiation; cited from earlier work
[7] = full covariate model, typical patient, intravenous infusion

CNCc1ccc(-c2cc(-c3nc(-c4ccc(S(=O)(=O)C(C)C)cc4)cnc3N)on2)cc1 [berzosertib, 5-(4-(Isopropylsulfonyl)phenyl)-3-(3-(4-((methylamino)methyl)phenyl)isoxazol-5-yl)pyrazin-2-amine]
Additive residual error ([1]; base model): 1.9 ng/mL | Central volume V1 ([1]; base model): 111 L | Peripheral volume V2 ([1]; base model): 861 L | Proportional residual error [sd] ([1]; base model): 0.22 | cov (Q, V2) ([1]; base model): 0.089 | cov (V1, Q) ([1]; base model): 0.26 | cov (V1, V2) ([1]; base model): 0.093 | IIV on V1 [var] ([1]; base model, variance): 0.38 | IIV on Q [var] ([1]; base model, variance, first line so headed (r14)): 0.24 | IIV on Q [var] ([1]; base model, variance, second line so headed (r16)): 0.071 | PK interaction with evaluated chemo-combinations ([1]; berzosertib with gemcitabine, cisplatin, carboplatin, paclitaxel combinations): no evidence of a clinically significant PK interaction | V1 lower in female patients than in male patients ([1]; female vs male patients): 15.8% | Additive residual error ([1]; full covariate model): 1.73 ng/mL | Proportional residual error [sd] ([1]; full covariate model): 0.22 | cov (Q, V2) ([1]; full covariate model): 0.090 | cov (V1, Q) ([1]; full covariate model): 0.25 | cov (V1, V2) ([1]; full covariate model): 0.081 | Central volume V1 [1, 7]: 118 L | Peripheral volume V2 [1, 7]: 1030 L | IIV on Q [var] ([1]; full covariate model, variance): 0.24 | IIV on V1 [var] ([1]; full covariate model, variance): 0.32 | IIV on V2 [var] ([1]; full covariate model, variance): 0.047 | increase for V1 ([1]; high extreme of albumin): 18% | median increase in CL ([1]; high extreme of body weight): 12% | median increase in V1 ([1]; high extremes of tumor size at baseline): 24% | clearance ([1]; intravenous, base model): 933 mL/min | clearance ([1]; full covariate model, typical patient, intravenous infusion, 240 patients, 18–480 mg/m^2): 1080 mL/min | median decrease for V2 ([1]; low extreme of age): 16.7% | median decrease for V1 ([1]; low extreme of albumin): 28.6% | decrease in CL ([1]; low extreme of body weight): 9% | higher CL in patients with TNBC ([1]; patients with TNBC vs female patients with other tumor types): 42% | total plasma concentration needed to reach 50% of maximal inhibition (IC50) of p-Chk1 in humans (p-Chk1; estimated from multiple preclinical tumor models with carboplatin, irinotecan, cisplatin or gemcitabine, adjusted for species differences in plasma protein binding): approximately 110 ng/mL | inhibition of p-Chk1 (p-Chk1; tumor-bearing mice, in combination with various chemotherapies): dose-dependent inhibition of p-Chk1 | PK linearity over the dose range ([2]; 18–480 mg/m^2): linear | renal excretion ([2]; Study 001): 5–6% | terminal half-life ([2]; patients, intravenous, 18–480 mg/m^2): approximately 17 h | elimination via metabolism, enzyme (CYP3A4): mainly mediated by CYP3A4 | recommended phase II dose (RP2D) ([3]; days 2 and 9 following 75 mg/m^2 cisplatin (day 1)): 140 mg/m^2 | recommended phase II dose (RP2D) ([3]; days 2 and 9 following 1000 mg/m^2 gemcitabine (days 1 and 8)): 210 mg/m^2 | recommended phase II dose (RP2D) ([3]; days 2 and 9 following carboplatin AUC 5 (day 1)): 90 mg/m^2 | efficacy in combination with cisplatin [4]: dramatically enhanced the efficacy of cisplatin | sensitization of cells [5]: acutely sensitized acute myeloid leukemia cells | survival (acute myeloid leukemia): increased survival | sensitization to radiation and/or gemcitabine (pancreatic cancer cells): selectively sensitized pancreatic cancer cells but not normal cells | growth delay of xenografts [6]: markedly prolonged growth delay | normal cell or tissue toxicity [6]: without augmenting normal cell or tissue toxicity
